Laboratory results as given in patent US20190290673A1, “COMPOSITIONS AND METHODS FOR THE TREATMENT OF HBV INFECTION” (priority 2016, published 2019).

How the values were obtained:
HBV = experiment: Efficacy for treatment of HBV infection in transgenic HBV mice (liver HBV DNA, serum HBeAg/HBsAg); assay type: in vivo; conditions: per os, qd x 14 d, dosage 'high'; for liver HBV DNA levels: Southern blot hybridization and semi-quantitative PCR, compared to vehicle and ADV; for serum levels of HBeAg / serum levels of HBsAg: relative to vehicle values
Method: (§1) The goal of this study was to evaluate the efficacy of exemplary compounds for the treatment of HBV infection in transgenic mice. Homozygous […] transgenic HBV mice (21.6±2.8 g) originally obtained from the laboratory of Dr. Frank Chisari (Scripps Research Institute, LaJolla, Calif.) and derived from founder 1.3.32 were used in this study. Female and male HBV transgenic mice were block-randomized to the treatment groups (Table 1). Compounds of Formula (Ie) and Formula (If) were administered at 0.1 mL/30-gram mouse by oral gavage. Adefovir dipivoxil (ADV) was prepared as a solution of 2 mg/mL in 0.025 M sodium citrate, wherein 0.1 mL was administered by oral gavage (per os, p.o.) per 30 g mouse for a dosage of […].
(§2) Treatment was initiated at day 1. After the last treatment on day 14, necropsy was performed to obtain tissues to assay liver HBV DNA and sera for HBV antigens HBeAg and HBsAg. Weights were obtained on days −1, 1 (day of treatment initiation), 3, 7, and 14. Data were analyzed by one-way analysis of variance. Two animals died due to oral gavage treatment at day 7, one in group 1 and another in group 3. FIGS. 2A-2B show the effect of Formula (Ie) and Formula (If) on liver HBV DNA levels using Southern blot hybridization (FIG. 2A) and semi-quantitative PCR (FIG. 2B) as compared to vehicle and ADV.

[1] = Whole body weight change in transgenic HBV mice; assay type: in vivo; conditions: per os, qd x 14 d, dosage 'high'; relative to vehicle values
Method: as §1, §2

CO[C@H]1C(O[P@](=O)(OC[C@H]2O[C@@H](n3cnc4c(N)ncnc43)CC2O)SCOC(=O)OC(C)C)[C@@H](CO)O[C@H]1n1ccc(=O)[nH]c1=O (some centres unmarked) [Formula (Ie)]
liver HBV DNA levels (HBV): lowered HBV DNA levels in the liver | serum levels of HBeAg (HBV): Neither Formula (Ie) or Formula (If) had an effect | serum levels of HBsAg (HBV): Neither Formula (Ie) or Formula (If) had an effect | whole body weight change [1]: Neither Formula (Ie) or Formula (If) had an effect

CO[C@H]1C(O[P@@](=O)(OC[C@H]2O[C@@H](n3cnc4c(N)ncnc43)CC2O)SCOC(=O)OC(C)C)[C@@H](CO)O[C@H]1n1ccc(=O)[nH]c1=O (some centres unmarked) [Formula (If)]
liver HBV DNA levels (HBV): lowered HBV DNA levels in the liver | serum levels of HBeAg (HBV): Neither Formula (Ie) or Formula (If) had an effect | serum levels of HBsAg (HBV): Neither Formula (Ie) or Formula (If) had an effect | whole body weight change [1]: Neither Formula (Ie) or Formula (If) had an effect
